# Measurements published in patent US9682061B2, “Methods of treating bacterial infections using oritavancin” (THE MEDICINES COMPANY, priority 2009, dated 2017).
# Like-named read-outs stand apart in the source and are kept apart here.
# Columns and labels:
# S. aureus ATCC 29213 = assay: Broth microdilution MIC with arithmetic drug dilutions; assay type: cell-based, Staphylococcus aureus; conditions: for MIC: Staphylococcus aureus
# Method: (§1) Pooled sera from humans, mice and rats were obtained from Equitech-Bio (Kerrville, Tex.); pooled serum from beagle dogs was from Bioreclamation (Liverpool, N.Y.). ULTRA was prepared using Centricon Plus-50 ultrafilters (Millipore, Billerica, Mass.), whose molecular weight cutoff (50 kDa) excludes albumin. ORI stock solutions were prepared following CLSI M100-818 (Clinical and Laboratory Standards Institute. 2008. CLSI document M100-S18). Staphylococcus aureus ATCC 29213 was used as the test isolate at a final inoculum of ˜5×10^5 CFU/mL in both MIC and AUIC studies.
# (§2) Arithmetic MICs: Broth microdilution MIC assays with Staphylococcus aureus ATCC 29213 were based on CLSI guidelines (Clinical and Laboratory Standards Institute, 2009, CLSI document M7-A7). Growth media were 95% serum:5% CAMHB and 95% serum ultrafiltrate:5% CAMHB. Arithmetic dilutions of oritavancin and comparators were used to increase precision of minimum inhibitory concentration (MIC) values relative to doubling dilutions. Percent binding in serum was calculated as follows: % Bound=(1−[mean MICultrafiltrate/mean MICserum]×100%
# [1] = Serum protein binding estimated from MIC shift, serum vs serum ultrafiltrate (human); assay type: in vitro ADME; conditions: from mean MICs, broth microdilution, this study, read-out: % Bound (protein binding estimate) (converted)
# Source text: (§3) Avid binding of oritavancin (ORI) to filtration and dialysis membranes renders most protein binding methodologies unsuitable. To control for any impact of serum components on bacterial growth and antibiotic activity, MIC shifts (from arithmetic drug dilutions) and area under the inhibitory curve (AUIC) shifts (from time-kill assays) were quantified in the presence of serum (SER) compared to SER ultrafiltrate (ULTRA; free of albumin) to estimate ORI binding to serum. In this manner, the extent of reduction in oritavancin activity in serum was related to its degree of serum protein binding. The method was benchmarked using daptomycin and ceftriaxone (Lee et al., Antimicrob Agents Chemother. 35:2505-2508 (1991); Schmidt et al., Antimicrob Agents Chemother. 52:3994-4000 (2008); Yuk et al., Clin Pharmacokinet. 17:223-235 (1989); McKay et al., Evaluation of oritavancin activity in vitro in the presence of human and mouse serum, abstr P1854. Abstr. 19th European Congress of Clinical Microbiology and Infectious Diseases. European Society of Clinical Microbiology and Infectious Diseases, Basel, Switzerland, May 16, 2009).
# as §1
# as §2, with “Arithmetic dilutions of oritavancin and comparators were used to increase precision of minimum inhibitory concentration (MIC) values relative to doubling dilutions.” left out
# [2] = Serum protein binding estimated from MIC shift, serum vs serum ultrafiltrate (mouse); assay type: in vitro ADME; conditions: mouse serum; from mean MICs, broth microdilution; this study; read-out: % Bound (protein binding estimate) (converted)
# Source text: as §3, §1
# as §2, with “Arithmetic dilutions of oritavancin and comparators were used to increase precision of minimum inhibitory concentration (MIC) values relative to doubling dilutions.” left out
# [3] = Serum protein binding estimated from MIC shift, serum vs serum ultrafiltrate (rat); assay type: in vitro ADME; conditions: from mean MICs, broth microdilution, this study, read-out: % Bound (protein binding estimate) (converted)
# Source text: as §3, §1
# as §2, with “Arithmetic dilutions of oritavancin and comparators were used to increase precision of minimum inhibitory concentration (MIC) values relative to doubling dilutions.” left out
# [4] = Serum protein binding estimated from MIC shift, serum vs serum ultrafiltrate (dog); assay type: in vitro ADME; conditions: beagle dog serum; from mean MICs, broth microdilution; this study; read-out: % Bound (protein binding estimate) (converted)
# Source text: as §3, §1
# as §2, with “Arithmetic dilutions of oritavancin and comparators were used to increase precision of minimum inhibitory concentration (MIC) values relative to doubling dilutions.” left out
# [5] = Serum protein binding from time-kill AUIC shift, serum vs serum ultrafiltrate (human); assay type: in vitro ADME; conditions: pooled human serum compared with serum ultrafiltrate, read-out: Protein binding from area under the bacterial kill curves (converted)
# Source text: as §3, §1
# (§4) AUIC studies: Time-kill studies were performed using S. aureus ATCC 29213 at a final inoculum of 1×10^6 CFU/mL in 95% serum:5% CAMHB and in 95% serum ultrafiltrate:5% CAMHB. […] The AUIC was calculated using GraphPad Prism software. Percent binding in serum was calculated as follows: % Bound=(1−[AUICultrafiltrate/AUICserum]×100%
# [6] = Serum protein binding from time-kill AUIC shift, serum vs serum ultrafiltrate (mouse); assay type: in vitro ADME; conditions: pooled mouse serum compared with serum ultrafiltrate, read-out: Protein binding from area under the bacterial kill curves (converted)
# Source text: as §3, §1, §4
# [7] = Serum protein binding from MIC shift, summary across species; assay type: in vitro ADME, human, mouse, rat, dog; conditions: beagle (dog); human, mouse, rat, dog serum; MIC shift; read-out: Mean serum protein binding, range for the four species tested
# Source text: as §3, §1
# as §2, with “Arithmetic dilutions of oritavancin and comparators were used to increase precision of minimum inhibitory concentration (MIC) values relative to doubling dilutions.” left out
# serum protein = assay: as above; assay type: in vitro ADME, human, mouse, rat, dog; conditions: cross-species comparative study and concordant data
# Source text: as §3, §1
# as §2, with “Arithmetic dilutions of oritavancin and comparators were used to increase precision of minimum inhibitory concentration (MIC) values relative to doubling dilutions.” left out
# [8] = Protein binding estimates from time kill-based assays, summary; assay type: in vitro ADME; conditions: human, mouse, pooled serum compared with serum ultrafiltrate; this study; summary value
# Source text: Avid binding of oritavancin (ORI) to filtration and dialysis membranes renders most protein binding methodologies unsuitable. To control for any impact of serum components on bacterial growth and antibiotic activity, MIC shifts (from arithmetic drug dilutions) and area under the inhibitory curve (AUIC) shifts (from time-kill assays) were quantified in the presence of serum (SER) compared to SER ultrafiltrate (ULTRA; free of albumin) to estimate ORI binding to serum. In this manner, the extent of reduction in oritavancin activity in serum was related to its degree of serum protein binding. […]
# as §4
# human plasma [9] = conditions: broth microdilution, various concentrations, Zhanel et al. 1998; cited from earlier work
# human plasma [10] = conditions: DCC adsorption, 1-91 μg/ml, Rowe and Brown 2001; cited from earlier work
# human serum = conditions: broth microdilution, various concentrations, Craig, unpublished; cited from earlier work
# Albumin = Albumin (Homo sapiens, UniProt P02768); conditions: cantilever nanosensor, 0.2 μg/ml, McKendry, unpublished; cited from earlier work
# Sequence of Albumin (P02768 25-609): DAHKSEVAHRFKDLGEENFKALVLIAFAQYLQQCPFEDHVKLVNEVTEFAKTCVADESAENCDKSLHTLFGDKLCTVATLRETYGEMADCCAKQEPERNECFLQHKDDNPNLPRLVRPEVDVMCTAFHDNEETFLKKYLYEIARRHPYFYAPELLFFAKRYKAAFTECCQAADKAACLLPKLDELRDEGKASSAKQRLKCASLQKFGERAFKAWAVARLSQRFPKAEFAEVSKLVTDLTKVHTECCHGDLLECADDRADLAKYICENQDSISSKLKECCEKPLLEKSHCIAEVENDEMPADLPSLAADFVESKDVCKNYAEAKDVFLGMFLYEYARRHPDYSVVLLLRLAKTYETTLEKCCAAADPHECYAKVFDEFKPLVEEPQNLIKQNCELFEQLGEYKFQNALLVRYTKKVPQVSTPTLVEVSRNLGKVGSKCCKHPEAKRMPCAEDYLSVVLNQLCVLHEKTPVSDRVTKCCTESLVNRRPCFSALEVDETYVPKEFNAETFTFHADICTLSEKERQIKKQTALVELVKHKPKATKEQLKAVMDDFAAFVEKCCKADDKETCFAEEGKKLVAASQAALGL
# mouse serum = conditions: broth microdilution, various concentrations, Craig, unpublished; cited from earlier work
# rat plasma = conditions: broth microdilution, various concentrations, cited from earlier work
# [11] = test system: exponentially-growing S. aureus (MSSA, MRSA, VRSA); conditions: within 15 minutes to 2 hours; against MSSA, MRSA, and VRSA; McKay et al. 2009; cited from earlier work
compound,measurement,setting,value
"CN[C@H](CC(C)C)C(=O)N[C@H]1C(=O)N[C@@H](CC(N)=O)C(=O)N[C@H]2C(=O)N[C@H]3C(=O)N[C@H](C(=O)N[C@H](C(=O)O)c4cc(O)cc(O)c4-c4cc3ccc4O)[C@H](O[C@H]3C[C@](C)(N)[C@@H](O)[C@H](C)O3)c3ccc(c(Cl)c3)Oc3cc2cc(c3O[C@@H]2O[C@H](CO)[C@@H](O)[C@H](O)[C@H]2O[C@H]2C[C@](C)(NCc3ccc(-c4ccc(Cl)cc4)cc3)[C@@H](O)[C@H](C)O2)Oc2ccc(cc2Cl)[C@H]1O [Oritavancin, N-(4-(4-chlorophenyl)benzyl)A82846B]",MIC,"S. aureus ATCC 29213; ATCC29213, read-out: MIC, CAMHB, mean, cation-adjusted Mueller-Hinton broth, CLSI conditions, Dog",0.08 µg/mL
same,MIC,"S. aureus ATCC 29213; ATCC29213, read-out: MIC, CAMHB, mean, cation-adjusted Mueller-Hinton broth, CLSI conditions, Human",0.084 µg/mL
same,MIC,"S. aureus ATCC 29213; ATCC29213, read-out: MIC, CAMHB, mean, cation-adjusted Mueller-Hinton broth, CLSI conditions, Mouse",0.105 µg/mL
same,MIC,"S. aureus ATCC 29213; ATCC29213, read-out: MIC, CAMHB, mean, cation-adjusted Mueller-Hinton broth, CLSI conditions, Rat",0.086 µg/mL
same,MIC,"S. aureus ATCC 29213; ATCC29213, read-out: MIC, Serum, mean, 95% dog serum + 5% CAMHB",0.475 µg/mL
same,MIC,"S. aureus ATCC 29213; ATCC29213, read-out: MIC, Serum, mean, 95% human serum + 5% CAMHB",0.775 µg/mL
same,MIC,"S. aureus ATCC 29213; ATCC29213, read-out: MIC, Serum, mean, 95% mouse serum + 5% CAMHB",0.538 µg/mL
same,MIC,"S. aureus ATCC 29213; ATCC29213, read-out: MIC, Serum, mean, 95% rat serum + 5% CAMHB",0.313 µg/mL
same,MIC,"S. aureus ATCC 29213; ATCC29213, read-out: MIC, Ultrafiltrate, mean, 95% dog serum ultrafiltrate + 5% CAMHB",0.061 µg/mL
same,MIC,"S. aureus ATCC 29213; ATCC29213, read-out: MIC, Ultrafiltrate, mean, 95% human serum ultrafiltrate + 5% CAMHB",0.14 µg/mL
same,MIC,"S. aureus ATCC 29213; ATCC29213, read-out: MIC, Ultrafiltrate, mean, 95% mouse serum ultrafiltrate + 5% CAMHB",0.079 µg/mL
same,MIC,"S. aureus ATCC 29213; ATCC29213, read-out: MIC, Ultrafiltrate, mean, 95% rat serum ultrafiltrate + 5% CAMHB",0.055 µg/mL
same,Mean Fold MIC Increase,S. aureus ATCC 29213; mean MIC in 95% dog serum / mean MIC in 95% dog serum ultrafiltrate,7.8 fold
same,Mean Fold MIC Increase,S. aureus ATCC 29213; mean MIC in 95% human serum / mean MIC in 95% human serum ultrafiltrate,5.5 fold
same,Mean Fold MIC Increase,S. aureus ATCC 29213; mean MIC in 95% mouse serum / mean MIC in 95% mouse serum ultrafiltrate,6.8 fold
same,Mean Fold MIC Increase,S. aureus ATCC 29213; mean MIC in 95% rat serum / mean MIC in 95% rat serum ultrafiltrate,5.7 fold
same,fraction unbound,[1],0.181
same,fraction unbound,[2],0.147
same,fraction unbound,[3],0.176
same,fraction unbound,[4],0.129
same,fraction unbound at 0.5 μg/ml,[5]; 0.5 μg/ml oritavancin,0.326
same,fraction unbound at 1 μg/ml,[5]; 1 μg/ml oritavancin,0.361
same,fraction unbound at 2 μg/ml,[5]; 2 μg/ml oritavancin,0.383
same,fraction unbound at 0.5 μg/ml,[6]; 0.5 μg/ml oritavancin,0.335
same,fraction unbound at 1 μg/ml,[6]; 1 μg/ml oritavancin,0.317
same,fraction unbound at 2 μg/ml,[6]; 2 μg/ml oritavancin,0.312
same,fraction unbound,[7],0.129 to 0.181
same,"Bound to serum protein, overall conclusion across species",serum protein,approximately 85%
same,fraction unbound,[8],~0.35
same,Protein Binding,human plasma [9],87.5%
same,Protein Binding,human plasma [10],85.7-89.9%
same,Protein Binding,human serum,79.6%
same,Protein Binding,Albumin,79 ± 0.2%
same,Protein Binding,mouse serum,85.2%
same,Protein Binding,"rat plasma; Zhanel et al. 1998, listed as oritavancin",greater than 80%
same,Protein Binding,rat plasma; Zhanel et al. 1998,>80%
same,"Bactericidal activity, log reduction",[11],≥ 3 log
